Experimental data published in US20250368648A1, “MULTI-CYCLIC IRAK AND FLT3 INHIBITING COMPOUNDS AND USES THEREOF” (CHILDREN'S HOSPITAL MEDICAL CENTER, priority 2022, published 2025).

Key:
Format in all cases: biochemical
Settings in all cases: HotSpot functional assay, isolated kinase enzyme, 33P-ATP
IRAK1 = target: T1, IRAK1 (Homo sapiens, UniProt P51617); test: RBC HotSpot Kinase Assay, IRAK1
T1 construct: purchased RBC (Reaction Biology) HotSpot assay
Excerpt: (§1) This assay uses the isolated kinase enzyme. This assay is very useful for determining competition of the inhibitor for ATP and/or substrates and for measuring the kinetics of enzyme inhibition. […] Unlike kinase binding assays that measure competition for ATP, the HotSpot Kinase Assay is a functional assay that measures catalytic activity; as such it measures relative functional potency regardless of the mechanism of enzyme inhibition. This assay uses the form of the various enzymes that are easiest to express, which may not necessarily be the form of the enzyme that exist in the cell. (Sometimes the carboxy terminus has been truncated to aid in expression, or, if it is a receptor kinase, the enzyme itself is isolated from the other parts of the receptor that are involved in regulating kinase activity.)
(§2) The reagent used was as follows: Base Reaction buffer; 20 mM Hepes (pH 7.5), 10 mM MgCl2, 1 mM EGTA, 0.01% Brij35, 0.02 mg/mi BSA, 0.1 mM Na3VO4, 2 mM DTT, 1% DMSO. Required cofactors were added individually to each kinase reaction.
(§3) The reaction procedure was as follows: • 1) Substrates were prepared in freshly prepared Reaction Buffer. • 2) Any required cofactors were delivered to the substrate solution above. • 3) Kinase was delivered into the substrate solution and gently mixed. • 4) Compounds were delivered in 100% DMSO into the kinase reaction mixture by Acoustic technology (Echo550, nanoliter range), followed by incubation for 20 min at room temp. • 5) ^33P-ATP was delivered into the reaction mixture to initiate the reaction. • 6) The mixture was incubated for 2 hours at room temperature. • 7) Kinase activity was detected by P81 filter-binding method.

IRAK4 = target: T2, IRAK4 (Homo sapiens, UniProt Q9NWZ3); test: RBC HotSpot Kinase Assay, IRAK4; parameters: purchased RBC (Reaction Biology) HotSpot assay
T2 sequence (Q9NWZ3 1-460): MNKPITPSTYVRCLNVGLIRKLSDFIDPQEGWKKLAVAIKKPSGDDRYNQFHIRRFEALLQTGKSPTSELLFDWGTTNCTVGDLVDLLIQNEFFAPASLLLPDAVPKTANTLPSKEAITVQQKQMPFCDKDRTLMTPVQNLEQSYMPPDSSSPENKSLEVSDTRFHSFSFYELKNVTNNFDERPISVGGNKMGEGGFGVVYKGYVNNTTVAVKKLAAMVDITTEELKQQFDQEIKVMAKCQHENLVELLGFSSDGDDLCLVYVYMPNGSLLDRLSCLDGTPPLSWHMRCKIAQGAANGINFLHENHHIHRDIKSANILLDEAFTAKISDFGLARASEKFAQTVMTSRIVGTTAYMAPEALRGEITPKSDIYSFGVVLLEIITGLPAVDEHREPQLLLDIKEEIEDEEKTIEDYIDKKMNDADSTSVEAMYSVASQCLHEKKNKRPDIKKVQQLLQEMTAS
Excerpt: as §1, §2, §3

FLT3 = target: T3, FLT3 (Homo sapiens, UniProt P36888); test: RBC HotSpot Kinase Assay, FLT3; parameters: purchased RBC (Reaction Biology) HotSpot assay
T3 sequence (P36888 27-993): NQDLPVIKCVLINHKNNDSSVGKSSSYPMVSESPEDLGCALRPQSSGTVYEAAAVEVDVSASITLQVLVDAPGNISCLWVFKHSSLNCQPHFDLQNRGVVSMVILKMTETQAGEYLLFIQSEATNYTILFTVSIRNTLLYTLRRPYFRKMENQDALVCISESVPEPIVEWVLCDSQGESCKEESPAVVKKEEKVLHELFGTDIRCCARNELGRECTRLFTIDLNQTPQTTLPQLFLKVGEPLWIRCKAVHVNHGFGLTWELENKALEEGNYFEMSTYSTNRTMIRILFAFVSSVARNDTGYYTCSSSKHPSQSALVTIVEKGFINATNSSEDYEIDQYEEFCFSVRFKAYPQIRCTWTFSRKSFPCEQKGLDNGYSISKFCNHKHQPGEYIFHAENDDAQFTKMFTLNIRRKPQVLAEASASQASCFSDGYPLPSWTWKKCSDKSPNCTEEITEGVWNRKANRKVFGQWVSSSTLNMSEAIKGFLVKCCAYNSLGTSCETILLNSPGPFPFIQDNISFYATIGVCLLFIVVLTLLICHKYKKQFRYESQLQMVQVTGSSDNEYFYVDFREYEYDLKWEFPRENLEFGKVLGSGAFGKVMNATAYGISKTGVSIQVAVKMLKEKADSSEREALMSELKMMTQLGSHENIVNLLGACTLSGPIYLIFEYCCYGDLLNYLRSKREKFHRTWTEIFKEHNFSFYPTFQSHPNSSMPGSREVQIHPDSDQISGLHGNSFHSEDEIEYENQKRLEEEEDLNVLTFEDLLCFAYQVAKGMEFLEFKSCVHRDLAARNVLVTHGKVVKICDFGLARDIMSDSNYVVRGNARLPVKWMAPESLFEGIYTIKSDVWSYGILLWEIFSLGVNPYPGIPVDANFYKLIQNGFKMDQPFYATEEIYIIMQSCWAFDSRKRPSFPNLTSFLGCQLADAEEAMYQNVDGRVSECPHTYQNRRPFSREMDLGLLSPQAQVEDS
Excerpt: as §1, §2, §3

T1 sequence (P51617 whole entry): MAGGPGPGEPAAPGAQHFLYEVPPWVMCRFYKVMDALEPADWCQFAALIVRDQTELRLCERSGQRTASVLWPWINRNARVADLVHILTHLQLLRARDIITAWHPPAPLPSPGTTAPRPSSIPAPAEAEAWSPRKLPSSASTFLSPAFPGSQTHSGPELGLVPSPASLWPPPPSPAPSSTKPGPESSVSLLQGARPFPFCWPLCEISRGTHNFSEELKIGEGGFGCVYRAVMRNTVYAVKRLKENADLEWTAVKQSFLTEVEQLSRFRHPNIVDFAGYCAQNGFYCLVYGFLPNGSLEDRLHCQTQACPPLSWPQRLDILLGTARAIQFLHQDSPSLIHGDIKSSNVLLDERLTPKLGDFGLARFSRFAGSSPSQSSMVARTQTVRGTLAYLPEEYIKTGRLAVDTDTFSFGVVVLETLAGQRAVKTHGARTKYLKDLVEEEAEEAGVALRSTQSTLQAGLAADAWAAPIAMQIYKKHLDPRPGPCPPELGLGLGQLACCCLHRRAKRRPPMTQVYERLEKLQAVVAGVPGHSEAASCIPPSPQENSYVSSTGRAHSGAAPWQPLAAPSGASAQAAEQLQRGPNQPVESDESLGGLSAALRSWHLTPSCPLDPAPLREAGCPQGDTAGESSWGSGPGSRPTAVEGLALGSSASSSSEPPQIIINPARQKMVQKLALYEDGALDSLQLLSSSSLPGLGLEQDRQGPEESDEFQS

Structure (SMILES) | IC50 (IRAK1) | IC50 (IRAK4) | IC50 (FLT3)
COc1ccc(-c2cnc3cc(OC)c(C4CC4)nn23)nc1N[C@H]1CNCC[C@@H]1F [Compound 35a, 6-(6-cyclopropyl-7-methoxyimidazo[1,2-b]pyridazin-3-yl)-N-((3S,4S)-4-fluoropiperidin-3-yl)-3-methoxypyridin-2-amine] | > 10000 nM | 55 nM | < 0.5 nM
COc1ccc(N[C@H]2CNC[C@@H]2F)nc1-c1cnc2cc(OC)c(C3CC3)nn12 [Compound 36a, 6-(6-cyclopropyl-7-methoxyimidazo[1,2-b]pyridazin-3-yl)-N-((3S,4S)-4-fluoropyrrolidin-3-yl)-5-methoxypyridin-2-amine] | > 10000 nM | 341 nM | 105 nM
COc1ccc(N[C@H]2CNCC[C@@H]2F)nc1-c1cnc2cc(OC)c(C3CC3)nn12 [Compound 37a, 6-(6-cyclopropyl-7-methoxyimidazo[1,2-b]pyridazin-3-yl)-N-((3S,4S)-4-fluoropiperidin-3-yl)-5-methoxypyridin-2-amine] | > 10000 nM | 247 nM | 40 nM
COc1cc2ncc(-c3cc(C)cc(N[C@H]4CNC[C@@H]4F)n3)n2nc1C1CC1 [Compound 50a, 6-(6-cyclopropyl-7-methoxyimidazo[1,2-b]pyridazin-3-yl)-N-((3S,4S)-4-fluoropyrrolidin-3-yl)-4-methylpyridin-2-amine] | 8270 nM | 5240 nM | 2 nM
COc1cc2ncc(-c3cc(C)cc(N[C@@H]4CCCNC4)n3)n2nc1C1CC1 [Compound 51a, (R)-6-(6-cyclopropyl-7-methoxyimidazo[1,2-b]pyridazin-3-yl)-4-methyl-N-(piperidin-3-yl)pyridin-2-amine] | > 10000 nM | 4920 nM | 2 nM

Other lines, results leading:

IC50 (IRAK1) | IC50 (IRAK4) | IC50 (FLT3) | Structure (SMILES)
> 10000 nM | 1740 nM | 1 nM | COc1cc2ncc(-c3cc(C)cc(N[C@H]4CNCC[C@@H]4F)n3)n2nc1C1CC1 [Compound 52a, 6-(6-cyclopropyl-7-methoxyimidazo[1,2-b]pyridazin-3-yl)-N-((3S,4S)-4-fluoropiperidin-3-yl)-4-methylpyridin-2-amine]
4590 nM | 3190 nM | 299 nM | COc1cc2ncc(-c3cc(-c4ccccc4)cc(N[C@H]4CNCC[C@@H]4F)n3)n2nc1C1CC1 [Compound 53a, 6-(6-cyclopropyl-7-methoxyimidazo[1,2-b]pyridazin-3-yl)-N-((3S,4S)-4-fluoropiperidin-3-yl)-4-phenylpyridin-2-amine]
9510 nM | 6530 nM | 949 nM | COc1cc2ncc(-c3cc(-c4ccccc4)cc(N[C@H]4CNC[C@@H]4F)n3)n2nc1C1CC1 [Compound 54a, 6-(6-cyclopropyl-7-methoxyimidazo[1,2-b]pyridazin-3-yl)-N-((3S,4S)-4-fluoropyrrolidin-3-yl)-4-phenylpyridin-2-amine]
4010 nM | 4110 nM | 741 nM | COc1cc2ncc(-c3cc(-c4ccccc4)cc(N[C@@H]4CCCNC4)n3)n2nc1C1CC1 [Compound 55a, (R)-6-(6-cyclopropyl-7-methoxyimidazo[1,2-b]pyridazin-3-yl)-4-phenyl-N-(piperidin-3-yl)pyridin-2-amine]
> 10000 nM | 9000 nM | 2 nM | COc1cc2ncc(-c3cc(C4CC4)cc(N[C@H]4CNCC[C@@H]4F)n3)n2nc1C1CC1 [Compound 56a, 4-cyclopropyl-6-(6-cyclopropyl-7-methoxyimidazo[1,2-b]pyridazin-3-yl)-N-((3S,4S)-4-fluoropiperidin-3-yl)pyridin-2-amine]
> 10000 nM | > 10000 nM | 19 nM | COc1cc2ncc(-c3cc(C4CC4)cc(N[C@H]4CNC[C@@H]4F)n3)n2nc1C1CC1 [Compound 57a, 4-cyclopropyl-6-(6-cyclopropyl-7-methoxyimidazo[1,2-b]pyridazin-3-yl)-N-((3S,4S)-4-fluoropyrrolidin-3-yl)pyridin-2-amine]
